# Key:
# Format in all cases: cell-based
# CDK2 = molecular target: T1, CDK2 (Homo sapiens, UniProt P24941); assay: CDK2 HIBIT PQ (protein quantification), degradation; details: for CDK2 HIBIT PQ Max (%): Max = Maximum; for DC50: PQ = Protein Quantification
# T1 construct: host or cells: HEK293
# Summary of the method: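 Maximal degradation and DC50 were obtained from luminescence readings of HEK293 cells expressing HiBiT-tagged CDK2. The cells, grown in DMEM with 10% FBS, were seeded at 1.6×10^5 cells/well in 50 uL in 384-well plates and incubated overnight at 37° C and 5% CO2 before 6 hours of compound treatment. HiBiT reagent (Nano-Glo HiBiT lytic buffer, lytic substrate, LgBiT protein) was then added at 20 μL, and plates were shaken for 20 minutes at room temperature before reading on an EnVision, against a high control of 0.1% DMSO and a low control of medium only.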
# CDK9 = molecular target: T2, CDK9 (Homo sapiens, UniProt P50750); assay: CDK9 HIBIT PQ (protein quantification), degradation; details: for Dmax: Max = Maximum; for DC50: PQ = Protein Quantification
# T2 construct: host or cells: HEK293
# Summary of the method: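 Maximal degradation, Dmax and DC50 come from HiBiT assay readings of CDK9 protein in compound-treated HEK293 cells that express HiBiT-tagged CDK9. The cells were grown in DMEM with 10% FBS and seeded at 1.6×10^5 cells/well in 50 uL in 384-well plates before overnight incubation at 37° C and 5% CO2. Cells treated with 0.1% DMSO set the high control, and medium only set the low control.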
# CCNE1 = molecular target: T3, CCNE1 (Homo sapiens, UniProt P24864+P24941); assay: CCNE1 HIBIT PQ (protein quantification), degradation; details: for CCNE1 HIBIT PQ Max (%): Max = Maximum; for DC50: PQ = Protein Quantification
# T3 construct: host or cells: HEK293
# Summary of the method: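 HEK293 cells carrying HiBiT-tagged CCNE1 were grown in EMEM with 10% FBS and seeded in 384-well plates at 1.6×10⁵ cells/well in 50 uL, then incubated overnight at 37° C and 5% CO₂. Compound treatment lasted 6 hours, and CCNE1 protein was then measured with a HiBiT assay. High control was 0.1% DMSO-treated cells and low control was culture medium only. Maximal degradation and DC50 were derived from these readings.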
# T2 sequence (P50750 whole entry): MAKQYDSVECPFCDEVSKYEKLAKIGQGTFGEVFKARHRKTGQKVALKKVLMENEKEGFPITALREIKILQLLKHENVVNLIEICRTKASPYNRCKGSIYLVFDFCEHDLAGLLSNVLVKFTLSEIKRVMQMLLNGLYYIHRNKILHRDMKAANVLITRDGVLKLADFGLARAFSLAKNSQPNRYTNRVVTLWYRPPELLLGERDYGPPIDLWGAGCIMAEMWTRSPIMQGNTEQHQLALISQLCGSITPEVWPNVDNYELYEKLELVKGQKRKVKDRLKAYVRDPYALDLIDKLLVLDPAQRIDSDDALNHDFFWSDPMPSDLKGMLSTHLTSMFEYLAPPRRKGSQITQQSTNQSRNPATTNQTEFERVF
CDK2 HIBIT PQ Max (%) (CDK2),DC50 (CDK2) [nM],Dmax (CDK9) [%],CCNE1 HIBIT PQ Max (%) (CCNE1),DC50 (CCNE1) [nM],DC50 (CDK9) [nM],Compound
98,3.9,49,85,20.3,–,"CC(C)Oc1c(-c2cn[nH]c2)ncn2nc(Nc3ccc(S(=O)(=O)c4cccc(C[C@H]5C[C@H](c6ccc7c(c6)CN([C@@H]6CCC(=O)NC6=O)C7=O)C5)c4)cc3F)nc12 (stereo in doubt) [Compound 80, (R)-3-(5-((1s,3R)-3-(3-((3-fluoro-4-((8-isopropoxy-7-(1H-pyrazol-4-yl)-[1,2,4]triazolo[1,5-c]pyrimidin-2-yl)amino)phenyl)sulfonyl)benzyl)cyclobutyl)-1-oxoisoindolin-2-yl)piperidine-2,6-dione]"
89,0.2,74,65,1.79,3.38,CC(C)Oc1c(-c2cn[nH]c2)ncn2nc(Nc3ccc(S(=O)(=O)N(C)CCCN4CCN(c5ccc6c(c5)n(C)c(=O)n6C5CCC(=O)NC5=O)C[C@@H]4C(C)C)cc3F)nc12 (stereo partly shown) [Compound 64]
63,0.9,25,24,–,–,"CC(C)Oc1c(-c2cn[nH]c2)ncn2nc(Nc3ccc(S(=O)(=O)N4CCC[C@@H](CN5CC[C@@H](c6ccc7c(N8CCC(=O)NC8=O)nn(C)c7c6)CC5(C)C)C4)cc3F)nc12 (single isomer, unassigned) [Compound 105]"
88,–,71,64,0.17,0.5,CC(C)Oc1c(-c2cn[nH]c2)ncn2nc(Nc3ccc(S(=O)(=O)N4CCCC(CN5CCC(c6ccc7c(c6)n(C)c(=O)n7C6CCC(=O)NC6=O)CC5)C4)cc3F)nc12 (stereo not shown) [Compound 72]
90,0.87,77,85,0.77,3.8,CC(C)Oc1c(-c2cn[nH]c2)ncn2nc(NC3CCN(S(=O)(=O)N(C)CCCN4CCC(c5cccc6c5n(C)c(=O)n6C5CCC(=O)NC5=O)CC4)CC3)nc12 (racemic) [Compound 19]
91,0.26,77,83,0.94,2.7,CC(C)Oc1c(-c2cn[nH]c2)ncn2nc(Nc3ccc(S(=O)(=O)N(C)CCCN4CCN(c5cccc6c5n(C)c(=O)n6C5CCC(=O)NC5=O)CC4)cc3F)nc12 (racemic) [Compound 17]
89,1.44,97,72,6.38,11.7,CC(C)Oc1c(-c2cn[nH]c2)ncn2nc(Nc3ccc(S(=O)(=O)c4cccc(N5CCN(CC6CCN(c7ccc8c(c7)CN(C7CCC(=O)NC7=O)C8=O)CC6)CC5)c4)cc3F)nc12 (racemic) [Compound 9]
92,0.1,69,70,0.93,1.87,CC(C)Oc1c(-c2cn[nH]c2)ncn2nc(Nc3ccc(S(=O)(=O)N(C)CCCN4CCN(c5ccc6c(c5)n(C)c(=O)n6C5CCC(=O)NC5=O)CC4)cc3F)nc12 (stereo not shown) [Compound 66]
70,43.4,17,38,–,–,"CC(C)Oc1c(-c2cn[nH]c2)ncn2nc(Nc3ccc(S(=O)(=O)c4cccc(C[C@H]5C[C@H](c6ccc7c(N8CCC(=O)NC8=O)nn(C)c7c6)C5)c4)cc3F)nc12 [Compound 89, rel-1-(6-((1s,3r)-3-(3-((3-fluoro-4-((8-isopropoxy-7-(1H-pyrazol-4-yl)-[1,2,4]triazolo[1,5-c]pyrimidin-2-yl)amino)phenyl)sulfonyl)benzyl)cyclobutyl)-1-methyl-1H-indazol-3-yl)dihydropyrimidine-2,4(1H,3H)-dione]"
85,4.7,55,28,–,92.5,CC(C)Oc1c(-c2cn[nH]c2)ncn2nc(Nc3ccc(S(=O)(=O)N4CCC5(CCN(CC6CN(c7cccc8c7n(C)c(=O)n8C7CCC(=O)NC7=O)C6)C5)C4)cc3F)nc12 (stereo not shown) [Compound 75]
85,0.2,49,39,–,–,CC(C)Oc1c(-c2cn[nH]c2)ncn2nc(Nc3ccc(S(=O)(=O)N(C)CCCN4CCN(c5ccc6c(c5)n(C)c(=O)n6C5CCC(=O)NC5=O)C[C@H]4C(C)C)cc3F)nc12 (stereo partly shown) [Compound 65]
56,1.3,20,38,–,–,CC(C)Oc1c(-c2cn[nH]c2)ncn2nc(Nc3ccc(S(=O)(=O)N4CCCC(CN5CC(c6ccc7c(N8CCC(=O)NC8=O)nn(C)c7c6)C5)C4)cc3F)nc12 (racemic) [Compound 86]
92,1.67,104,94,3.16,3.91,CC(C)Oc1c(-c2cn[nH]c2)ncn2nc(N[C@H]3CCN(S(=O)(=O)c4cccc(CN5CCC(c6ccc7c(N8CCC(=O)NC8=O)nn(C)c7c6)CC5)c4)C[C@H]3C)nc12 [Compound 5]
89,2.2,8,62,4.06,–,CC(C)Oc1c(-c2cn[nH]c2)ncn2nc(Nc3ccc(S(=O)(=O)c4cccc(CN5CC(c6ccc7c(c6)CN(C6CCC(=O)NC6=O)C7=O)C5)c4)cc3F)nc12 (racemic) [Compound 12]
78,–,29,35,–,–,CC(C)Oc1c(-c2cn[nH]c2)ncn2nc(Nc3ccc(S(=O)(=O)N4CCC(CN5CCC(c6ccc7c(c6)n(C)c(=O)n7C6CCC(=O)NC6=O)CC5)C4)cc3F)nc12 (stereo not shown) [Compound 71]
93,–,90,82,0.23,0.48,CC(C)Oc1c(-c2cn[nH]c2)ncn2nc(Nc3ccc(S(=O)(=O)N(C)CCCN4CCC(c5ccc6c(c5)n(C)c(=O)n6C5CCC(=O)NC5=O)CC4)c(F)c3F)nc12 (racemic) [Compound 56]
95,12.4,37,82,34.4,–,"CC(C)Oc1c(-c2cn[nH]c2)ncn2nc(Nc3ccc(S(=O)(=O)c4cccc(CC5CC(c6ccc7c(c6)CN(C6CCC(=O)NC6=O)C7=O)C5)c4)cc3F)nc12 (stereo not shown) [Compound 77, 3-(5-(3-(3-((3-fluoro-4-((8-isopropoxy-7-(1H-pyrazol-4-yl)-[1,2,4]triazolo[1,5-c]pyrimidin-2-yl)amino)phenyl)sulfonyl)benzyl)cyclobutyl)-1-oxoisoindolin-2-yl)piperidine-2,6-dione]"
92,< 0.152,85,66,1.24,2.07,CC(C)Oc1c(-c2cn[nH]c2)ncn2nc(Nc3ccc(S(=O)(=O)N(C)CCCN4CCN(c5ccc6c(c5)n(C)c(=O)n6C5CCC(=O)NC5=O)C[C@H]4C)cc3F)nc12 (stereo partly shown) [Compound 63]
95,14.9,61,67,78.9,306,"CC(C)Oc1c(-c2cn[nH]c2)ncn2nc(Nc3ccc(S(=O)(=O)c4cccc(CN5CCN(c6ccc7c(N8CCC(=O)NC8=O)nn(C)c7c6)CC5C(C)C)c4)cc3F)nc12 (racemic) [Compound 42, rac-(R)-1-(6-(4-(3-((3-fluoro-4-((8-isopropoxy-7-(1H-pyrazol-4-yl)-[1,2,4]triazolo[1,5-c]pyrimidin-2-yl)amino)phenyl)sulfonyl)benzyl)-3-isopropylpiperazin-1-yl)-1-methyl-1H-indazol-3-yl)dihydropyrimidine-2,4(1H,3H)-dione]"
